Experiments:
PDGF-Ra = target: T1, PDGF-Ra (Homo sapiens, UniProt P16234); assay: Inhibitory activity against PDGF-Ra phosphorylation by PDGF-AA stimulation using G292; assay type: cell-based; conditions: Pharmacological Test Example 1; > means inhibition at indicated concentration not more than 50%, < and << not less than 50%; read-out: PDGF (E) IC50
T1 construct: host or cells: G-292 human osteosarcoma cells
Procedure, shortened: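 Human osteosarcoma G-292, 0.1% FBS o/n; cpd (DMSO) 1 h 37 °C; PDGF-AA 50 ng/ml 5 min; lyse 20 min RT; PY-20 capture 4 °C o/n; anti-PDGF-Ra + HRP-GAR; OD450.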

c-kit = target: T2, c-kit (Homo sapiens, UniProt P10721); assay: Inhibitory activity against c-kit autophosphorylation (MO7e cells, h-SCF); assay type: cell-based; conditions: for IC50: MO7e cells, h-SCF 50 ng/ml, read-out: c-kit IC50; for inhibition at 1 µM: Mo7e, figure in parentheses in −( ), at 1000 nM
T2 construct: MO7e (human megakaryocytic leukemia cell line) which had been arrested for 20 hr; endogenous in cells; host or cells: MO7e human megakaryocytic leukemia cell line
Procedure, shortened: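 Growth-arrested (20 hr) MO7e; cpd in DMSO, 1 hr; h-SCF 50 ng/ml, 5 min; lyse. ELISA: anti-pTyr (PY-20) capture, anti-c-kit 1° Ab, HRP anti-rabbit 2° Ab, A450.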

T1 sequence (P16234 24-1089): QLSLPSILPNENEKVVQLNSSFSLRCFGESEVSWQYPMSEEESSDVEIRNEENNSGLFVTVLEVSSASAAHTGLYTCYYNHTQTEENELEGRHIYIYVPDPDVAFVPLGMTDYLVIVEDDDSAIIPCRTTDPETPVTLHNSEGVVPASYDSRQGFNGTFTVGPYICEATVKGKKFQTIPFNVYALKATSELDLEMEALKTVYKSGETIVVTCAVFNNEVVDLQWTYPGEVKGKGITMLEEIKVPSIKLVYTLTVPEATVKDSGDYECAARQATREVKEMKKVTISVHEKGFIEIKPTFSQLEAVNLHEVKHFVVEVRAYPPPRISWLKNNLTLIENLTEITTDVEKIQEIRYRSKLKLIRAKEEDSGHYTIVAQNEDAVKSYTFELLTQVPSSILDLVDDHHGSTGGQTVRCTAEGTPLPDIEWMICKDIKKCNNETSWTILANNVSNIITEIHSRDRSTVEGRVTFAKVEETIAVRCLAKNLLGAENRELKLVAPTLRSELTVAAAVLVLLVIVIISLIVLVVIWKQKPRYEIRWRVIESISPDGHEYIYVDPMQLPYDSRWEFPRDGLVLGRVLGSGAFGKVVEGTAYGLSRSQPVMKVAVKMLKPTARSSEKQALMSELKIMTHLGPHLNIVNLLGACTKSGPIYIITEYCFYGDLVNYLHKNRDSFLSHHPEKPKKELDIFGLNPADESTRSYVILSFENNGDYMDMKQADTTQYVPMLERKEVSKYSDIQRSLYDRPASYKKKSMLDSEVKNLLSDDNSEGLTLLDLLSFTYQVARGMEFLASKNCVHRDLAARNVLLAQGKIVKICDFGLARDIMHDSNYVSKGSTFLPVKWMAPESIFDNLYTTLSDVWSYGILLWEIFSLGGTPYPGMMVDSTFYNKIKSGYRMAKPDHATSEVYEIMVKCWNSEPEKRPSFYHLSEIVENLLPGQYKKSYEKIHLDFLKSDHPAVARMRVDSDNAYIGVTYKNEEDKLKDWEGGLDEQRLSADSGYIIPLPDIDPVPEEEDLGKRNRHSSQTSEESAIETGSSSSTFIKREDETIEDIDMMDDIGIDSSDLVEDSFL
T2 sequence (P10721 26-976): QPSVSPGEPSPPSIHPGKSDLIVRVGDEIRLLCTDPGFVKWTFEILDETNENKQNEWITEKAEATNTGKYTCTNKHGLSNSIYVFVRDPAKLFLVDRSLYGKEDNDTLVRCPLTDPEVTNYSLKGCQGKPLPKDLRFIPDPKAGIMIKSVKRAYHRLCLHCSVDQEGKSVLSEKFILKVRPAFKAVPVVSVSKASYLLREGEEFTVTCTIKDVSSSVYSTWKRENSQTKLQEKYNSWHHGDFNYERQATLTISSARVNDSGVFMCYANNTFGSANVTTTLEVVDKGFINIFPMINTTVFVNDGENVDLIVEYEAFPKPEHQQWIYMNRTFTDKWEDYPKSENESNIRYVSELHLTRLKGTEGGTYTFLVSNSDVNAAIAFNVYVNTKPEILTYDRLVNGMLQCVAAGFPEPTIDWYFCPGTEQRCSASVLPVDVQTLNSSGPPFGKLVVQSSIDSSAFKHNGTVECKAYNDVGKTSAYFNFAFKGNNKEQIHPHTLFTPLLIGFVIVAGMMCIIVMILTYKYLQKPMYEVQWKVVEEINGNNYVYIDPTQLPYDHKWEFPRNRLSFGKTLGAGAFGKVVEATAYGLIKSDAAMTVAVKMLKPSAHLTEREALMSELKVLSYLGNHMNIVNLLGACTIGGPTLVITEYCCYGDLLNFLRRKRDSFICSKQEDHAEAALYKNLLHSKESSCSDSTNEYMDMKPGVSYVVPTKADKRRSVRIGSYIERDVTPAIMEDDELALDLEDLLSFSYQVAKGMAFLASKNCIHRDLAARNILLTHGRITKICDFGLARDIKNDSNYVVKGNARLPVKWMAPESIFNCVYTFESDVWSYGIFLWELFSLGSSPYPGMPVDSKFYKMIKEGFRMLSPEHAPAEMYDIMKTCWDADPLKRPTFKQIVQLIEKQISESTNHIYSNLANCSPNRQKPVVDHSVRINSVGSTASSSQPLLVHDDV

IC50 (PDGF-Ra) | IC50 (c-kit) | inhibition at 1 µM (c-kit) | Compound
< 10 nM | 621 nM |  | COc1cc2ncnc(Oc3ccc(NC(=O)OC(C)c4cccc(C(F)(F)F)c4)cc3)c2cc1OC (stereo not drawn) [Example 90, 1-[3-(Trifluoromethyl)phenyl]ethyl N-{4-[(6,7-dimethoxy-4-quinazolinyl)oxy]phenyl}carbamate]
< 10 nM | 152 nM |  | COc1cc2nccc(Oc3ccc(NC(=O)OC(C)c4cccc(F)c4)c(C)c3C)c2cc1OC (stereo not drawn) [Example 98, 1-(3-Fluorophenyl)ethyl N-{4-[(6,7-dimethoxy-4-quinolyl)oxy]-2,3-dimethylphenyl}carbamate]
21 nM | 394 nM |  | COc1cc2nccc(Oc3cc(C)c(NC(=O)OC(C)c4cccc(F)c4)cc3C)c2cc1OC (stereo not drawn) [Example 99, 1-(3-Fluorophenyl)ethyl N-{4-[(6,7-dimethoxy-4-quinolyl)oxy]-2,5-dimethylphenyl}carbamate]
14 nM | 815 nM |  | COc1cc2ncnc(Oc3ccc(NC(=O)OC(C)c4cccc(F)c4)cc3)c2cc1OC (stereo not drawn) [Example 100, 1-(3-Fluorophenyl)ethyl N-{4-[(6,7-dimethoxy-4-quinazolinyl)oxy]phenyl}carbamate]
< 10 nM | 217 nM |  | COc1cc2nccc(Oc3ccc(NC(=O)OC(C)c4ccc(F)cc4)cc3)c2cc1OC (stereo not drawn) [Example 102, 1-(4-Fluorophenyl)ethyl N-{4-[(6,7-dimethoxy-4-quinolyl)oxy]phenyl}carbamate]
25 nM | 590 nM |  | COc1cc2nccc(Oc3cc(C)c(NC(=O)OC(C)c4ccc(F)cc4)cc3C)c2cc1OC (stereo not drawn) [Example 104, 1-(4-Fluorophenyl)ethyl N-{4-[(6,7-dimethoxy-4-quinolyl)oxy]-2,5-dimethylphenyl}carbamate]
< 10 nM | 252 nM |  | COc1cc2ncnc(Oc3ccc(NC(=O)OC(C)c4ccc(F)cc4)cc3)c2cc1OC (stereo not drawn) [Example 105, 1-(4-Fluorophenyl)ethyl N-{4-[(6,7-dimethoxy-4-quinazolinyl)oxy]phenyl}carbamate]
18 nM | 402 nM |  | COc1cc2nccc(Oc3ccc(NC(=O)OC(C)c4ccccc4Br)c(C)c3C)c2cc1OC (stereo not drawn) [Example 113, 1-(2-Bromophenyl)ethyl N-{4-[(6,7-dimethoxy-4-quinolyl)oxy]-2,3-dimethylphenyl}carbamate]
33 nM | 746 nM |  | COc1cc2nccc(Oc3ccc(NC(=O)OC(C)c4cccc(Br)c4)c(C)c3C)c2cc1OC (stereo not drawn) [Example 118, 1-(3-Bromophenyl)ethyl N-{4-[(6,7-dimethoxy-4-quinolyl)oxy]-2,3-dimethylphenyl}carbamate]
13 nM | 505 nM |  | COc1cc2ncnc(Oc3ccc(NC(=O)OC(C)c4cccc(Br)c4)cc3)c2cc1OC (stereo not drawn) [Example 120, 1-(3-Bromophenyl)ethyl N-{4-[(6,7-dimethoxy-4-quinazolinyl)oxy]phenyl}carbamate]
< 10 nM | 207 nM |  | COc1cc2nccc(Oc3ccc(NC(=O)OC(C)c4ccccc4F)c(C)c3C)c2cc1OC (stereo not drawn) [Example 123, 1-(2-Fluorophenyl)ethyl N-{4-[(6,7-dimethoxy-4-quinolyl)oxy]-2,3-dimethylphenyl}carbamate]
42 nM |  | 39% | COc1cc2nccc(Oc3cc(C)c(NC(=O)OC(C)c4ccccc4F)cc3C)c2cc1OC (stereo not drawn) [Example 124, 1-(2-Fluorophenyl)ethyl N-{4-[(6,7-dimethoxy-4-quinolyl)oxy]-2,5-dimethylphenyl}carbamate]

More lines, now with the values behind:

Compound | IC50 (PDGF-Ra) | IC50 (c-kit) | inhibition at 1 µM (c-kit)
COc1cc2ncnc(Oc3ccc(NC(=O)OCCc4cccc(C(F)(F)F)c4)cc3)c2cc1OC [Example 85, 3-(Trifluoromethyl)phenethyl N-{4-[(6,7-dimethoxy-4-quinazolinyl)oxy]phenyl}carbamate] | < 10 nM | 163 nM | 
COc1cc2ncnc(Oc3ccc(NC(=O)OCCc4cccc(C(F)(F)F)c4)c(Cl)c3)c2cc1OC [Example 86] | 13 nM | 842 nM | 
COc1cc2nccc(Oc3ccc(NC(=O)OC(C)c4cccc(C(F)(F)F)c4)cc3)c2cc1OC (stereo not drawn) [Example 87, 1-[3-(Trifluoromethyl)phenyl]ethyl N-{4-[(6,7-dimethoxy-4-quinolyl)oxy]phenyl}carbamate] | < 10 nM | 607 nM | 
COc1cc2nccc(Oc3ccc(NC(=O)OC(C)c4cccc(C(F)(F)F)c4)c(C)c3C)c2cc1OC (stereo not drawn) [Example 88, 1-[3-(Trifluoromethyl)phenyl]ethyl N-{4-[(6,7-dimethoxy-4-quinolyl)oxy]-2,3-dimethylphenyl}carbamate] | 19 nM |  | 45%
COc1cc2nccc(Oc3cc(C)c(NC(=O)OC(C)c4cccc(C(F)(F)F)c4)cc3C)c2cc1OC (stereo not drawn) [Example 89, 1-[3-(Trifluoromethyl)phenyl]ethyl N-{4-[(6,7-dimethoxy-4-quinolyl)oxy]-2,5-dimethylphenyl}carbamate] | 14 nM |  | 35%
COc1cc2ncnc(Oc3ccc(NC(=O)OC(C)c4cccc(C(F)(F)F)c4)c(Cl)c3)c2cc1OC (stereo not drawn) [Example 91, 1-[3-(Trifluoromethyl)phenyl]ethyl N-{2-chloro-4-[(6,7-dimethoxy-4-quinazolinyl)oxy]phenyl}carbamate] | 14 nM |  | 20%
COc1cc2nccc(Oc3ccc(NC(=O)OC(C)c4cc(F)c(F)cc4F)cc3)c2cc1OC (stereo not drawn) [Example 92, 1-(2,4,5-Trifluorophenyl)ethyl N-{4-[(6 7-dimethoxy-4-quinolyl)oxy]phenyl}carbamate] | < 10 nM | 677 nM | 
COc1cc2nccc(Oc3ccc(NC(=O)OC(C)c4cc(F)c(F)cc4F)c(C)c3C)c2cc1OC (stereo not drawn) [Example 93, 1-(2,4,5-Trifluorophenyl)ethyl N-{4-[(6,7-dimethoxy-4-quinolyl)oxy]-2,3-dimethylphenyl}carbamate] | 17 nM | 601 nM | 
COc1cc2nccc(Oc3cc(C)c(NC(=O)OC(C)c4cc(F)c(F)cc4F)cc3C)c2cc1OC (stereo not drawn) [Example 94, 1-(2,4,5-Trifluorophenyl)ethyl N-{4-[(6,7-dimethoxy-4-quinolyl)oxy]-2,5-dimethylphenyl}carbamate] | 31 nM |  | 31%
COc1cc2ncnc(Oc3ccc(NC(=O)OC(C)c4cc(F)c(F)cc4F)cc3)c2cc1OC (stereo not drawn) [Example 95, 1-(2,4,5-Trifluorophenyl)ethyl N-{4-[(6,7-dimethoxy-4-quinazolinyl)oxy]phenyl}carbamate] | 16 nM | 962 nM | 
COc1cc2ncnc(Oc3ccc(NC(=O)OC(C)c4cc(F)c(F)cc4F)c(Cl)c3)c2cc1OC (stereo not drawn) [Example 96, 1-(2,4,5-Trifluorophenyl)ethyl N-{2-chloro-4-[(6,7-dimethoxy-4-quinazolinyl)oxy]phenyl}carbamate] | 38 nM |  | 13%
COc1cc2nccc(Oc3ccc(NC(=O)OC(C)c4cccc(F)c4)cc3)c2cc1OC (stereo not drawn) [Example 97, 1-(3-Fluorophenyl)ethyl N-{4-[(6,7-dimethoxy-4-quinolyl)oxy]phenyl}carbamate] | < 10 nM | 254 nM | 
COc1cc2ncnc(Oc3ccc(NC(=O)OC(C)c4cccc(F)c4)c(Cl)c3)c2cc1OC (stereo not drawn) [Example 101, 1-(3-Fluorophenyl)ethyl N-{2-chloro-4-[(6,7-dimethoxy-4-quinazolinyl)oxy]phenyl}carbamate] | 12 nM |  | 27%
COc1cc2nccc(Oc3ccc(NC(=O)OC(C)c4ccc(F)cc4)c(C)c3C)c2cc1OC (stereo not drawn) [Example 103, 1-(4-Fluorophenyl)ethyl N-{4-[(6,7-dimethoxy-4-quinolyl)oxy]-2,3-dimethylphenyl}carbamate] | 15 nM | 200 nM | 
COc1cc2nccc(Oc3ccc(NC(=O)OC(C)c4ccccc4Br)cc3)c2cc1OC (stereo not drawn) [Example 112, 1-(2-Bromophenyl)ethyl N-{4-[(6,7-dimethoxy-4-quinolyl)oxy]phenyl}carbamate] | 16 nM | 214 nM | 
COc1cc2nccc(Oc3cc(C)c(NC(=O)OC(C)c4ccccc4Br)cc3C)c2cc1OC (stereo not drawn) [Example 114, 1-(2-Bromophenyl)ethyl N-{4-[(6,7-dimethoxy-4-quinolyl)oxy]-2,5-dimethylphenyl}carbamate] | 65 nM | 602 nM | 
COc1cc2ncnc(Oc3ccc(NC(=O)OC(C)c4ccccc4Br)cc3)c2cc1OC (stereo not drawn) [Example 115, 1-(2-Bromophenyl)ethyl N-{4-[(6,7-dimethoxy-4-quinazolinyl)oxy]phenyl}carbamate] | < 10 nM | 387 nM | 
COc1cc2nccc(Oc3ccc(NC(=O)OC(C)c4cccc(Br)c4)cc3)c2cc1OC (stereo not drawn) [Example 117, 1-(3-Bromophenyl)ethyl N-{4-[(6,7-dimethoxy-4-quinolyl)oxy]phenyl}carbamate] | 26 nM | 759 nM | 
COc1cc2nccc(Oc3cc(C)c(NC(=O)OC(C)c4cccc(Br)c4)cc3C)c2cc1OC (stereo not drawn) [Example 119, 1-(3-Bromophenyl)ethyl N-{4-[(6,7-dimethoxy-4-quinolyl)oxy]-2,5-dimethylphenyl}carbamate] | > 100 nM |  | 31%
COc1cc2ncnc(Oc3ccc(NC(=O)OC(C)c4cccc(Br)c4)c(Cl)c3)c2cc1OC (stereo not drawn) [Example 121, 1-(3-Bromophenyl)ethyl N-{2-chloro-4-[(6,7-dimethoxy-4-quinazolinyl)oxy]phenyl}carbamate] | 48 nM |  | 17%
COc1cc2nccc(Oc3ccc(NC(=O)OC(C)c4ccccc4F)cc3)c2cc1OC (stereo not drawn) [Example 122, 1-(2-Fluorophenyl)ethyl N-{4-[(6,7-dimethoxy-4-quinolyl)oxy]phenyl}carbamate] | 11 nM | 821 nM | 
